# Legend:
# [1] = tested on: Enterococcus faecium resistant clinical isolates; assay: MIC/IC90, resistant clinical isolates of Enterococcus faecium; format: cell-based
# Method: (§1) Cell growth was tested using the Minimal Inhibitory Concentration (MIC) susceptibility tests by use of the microdilution broth method in accordance to the NCCLS Guidelines (NCCLS Guidelines, Methods for Dilution Antimicrobial Susceptibility Tests for Bacteria That Grow Aerobically; Approved Standard, Sixth Edition, Volume 23; Number 2). The minimum inhibitory concentration (MIC), is defined ad the lowest concentration of drug which inhibits growth of the test organism, in the sense that no visible growth is detected (total inhibition of growth). In example 2 MIC of the compounds used on fungal microorganisms was determined from the IC90 measurements according to NCCLS Guidelines.
# (§2) A log phase culture of bacteria was diluted with fresh pre-warmed Mueller-Hinton medium and adjusted to a defined OD at 600 nm in order to give a final concentration of 1×10^4-5 bacteria/ml medium. The bacterial culture was transferred to microtiter-plates and culture was added to each well. Drug was added to the bacterial culture in the wells as two-fold dilution series of drug in order to give final concentrations ranging from 0.03 to 128 μg/ml. Trays were incubated at 37° C. by shaking in a robot analyzer, PowerWavex, software KC^4′ Kebo.Lab, Copenhagen, for 16 h and optical densities were measured at 600 nm during the incubation time in order to record growth curves. Wells containing bacterial culture without drug were used as controls to ensure correct inoculum size and bacterial growth during the incubation. Cultures were tested in order to detect contaminations. Each experiment was repeated in triplicate. MIC values represent the mean values of two separate triplicate experiments. Intra- and interassay variation was <5%.
# Inhibition 90 (IC90) is defined as: OD responding a 90% growth inhibition. […]
# Clinically relevant isolates were cultured and assayed as described above.
# Streptococci = assay: MIC/IC90 broad spectrum, Streptococci; format: cell-based; settings: 30 strains, 20 resistant
# Method: as §1, §2
# Inhibition 90 (IC90) is defined as: OD responding a 90% growth inhibition.
# A broad spectrum of bacteria were cultured and assayed as described above for susceptibility towards N-dealkyl-clopenthixol.
# [2] = tested on: Enterococcus faecalis BG VSE-92; assay: Mouse peritonitis/sepsis model; format: in vivo, NMRI mice; settings: 25 mg/kg s.c.
# Method: A clinical multiresistant isolate of Enterococcus faecalis BG VSE-92 from human urine was used.
# Female NMRI mice (age, approximately 6 to 8 weeks; weight, 30±2 g) were used for the mouse […] peritonitis model (as described below).
# Bacterial suspensions were prepared from fresh overnight cultures (made from frozen stock cultures) on 5% blood agar plates as described above. The inoculum for the mouse peritonitis model was prepared immediately before use and was adjusted at 540 nm of giving a density of approximately 10^7 CFU/ml. The size of the inoculum was determined by viability counting on 5% blood agar.
# The mice were injected intraperitoneally with 0.5 ml of the enterococcal suspension, resulting in bacteremia within 1 h of inoculation. Antibiotic therapy was initiated 1 h after inoculation. N-dealkyl-trans-clopenthixol was administered subcutaneously in the neck region in a volume of 0.7 ml per dose. Ten mice were in each treatment group. Inoculated untreated control mice were included in all trials. (Method reference: Erlandsdottir et al; Antimicrob Agents Chemother. 2001 April; 45(4):1078-85)
# The effects of the various treatment regimens were determined during 6 h of treatment by evaluation of bacterial counts in the […]. After the mice were killed, blood were immediately diluted 10-fold in saline, from which 20 μl was plated onto 5% blood agar plates in spots, with subsequent counting of colonies after incubation overnight at 35° C. The lowest detection levels for bacterial counts in blood were 50 CFU/ml.
# The bactericidal efficacies of the treatment regimens in the mouse models were calculated by subtracting the results for each treated mouse from the mean results for control mice at the end of therapy (6 h). A P value of <0.05 was considered significant. All statistical comparisons were two-tailed.
# [3] = tested on: Fluconazole Resistant Candida albicans clinical isolate; assay: MIC (80% growth inhibition), broth microdilution NCCLS M27-A, fluconazole resistant Candida albicans; format: cell-based; settings: fluconazole resistant Candida albicans; MIC = 80% growth inhibition
# Method: The antimicrobial effect of N-dealkyl-trans-clopenthixol and N-dealkyl-trans-flupenthixol was studied by exposing cells to 0-8 μg/ml of the compounds in two-fold dilutions. Each experiment was repeated in triple duplicate. MIC values represent the mean values of two separate experiments.
# Clinical Isolate of A Fluconazole Resistant Candida albicans from a Patient with Candidemia.
# The isolates were subcultured for 24 h on Sabouraud glucose agar before susceptibility testing. Broth microdilution tests were performed according to NCCLS document M27-A (Ref: National Commitee for Clinical Laboratory Standards. (1997). Reference Method for Broth Dilution Antifungal Susceptibility Testing of Yeasts: Approved Standard M27-A. NCCLS, Wayne, Pa.)
# Microtitre plates were read spectrophotometrically at 530 nm, after mixing the wells by pipetting to resuspend yeast sediments. The MIC was defined as the lowest drug dilution resulting in 80% growth inhibition.
# uninfected MT4 cells = assay: Cytotoxic effect in uninfected MT4 cultures; format: cell-based; settings: six days
# Method: Compounds were examined for possible antiviral activity against strain IIIB of HIV-1 using MT4 cells as target cells. MT4 cells were incubated with virus (0.005 MOI) and growth medium containing the test dilutions of compound(s) for six days in parallel with virus-infected and uninfected control cultures without compound added. Expression of HIV in the cultures was indirectly quantified using the MTT assay as previously described. Compounds mediating less than 30% reduction of HIV expression were considered without biological activity. Compounds were tested in parallel for cytotoxic effect in uninfected MT4 cultures containing the test dilutions of compound as described above. Cultures for test of both antiviral activity and cytotoxic effect were set up in triple duplicates, 200 ml per culture in micro titre plates. A 30% inhibition of cell growth relative to control cultures was considered significant. The 50% inhibitory concentration was determined by interpolation from the plots of percent inhibition versus concentration of compound. CC50 is defined as the inhibitory concentration that reduces cellular growth or viability of uninfected cells by 50%.
# [4] = tested on: Candida glabrata Multiresistant isolate; assay: MIC of cis- and trans-forms, Candida glabrata multiresistant isolate; format: cell-based; settings: Example 4
# Method: as §1
# Cultured microorganisms were assayed as described above. Cis- and trans-isomers of N-dealkyl-clopenthixol was added to the cultures.
# [5] = Enterococcus faecium 16, BLR, CR
# [6] = 6 hours after inoculation, infected mice
smiles,measurement,setting,value
"Clc1ccc2c(c1)/C(=C/CCN1CCNCC1)c1ccccc1S2 [N-dealkyl-trans-clopenthixol, trans-1-(3-(2-chloro-thioxanthen-9-ylidene)propyl)piperazine]",IC90,"[1]; Enterococcus faecium 11, VanA",0.6 mg/L
same,MIC,"[1]; Enterococcus faecium 11, VanA",1 mg/L
same,IC90,"[1]; Enterococcus faecium 12, VanA",0.6 mg/L
same,MIC,"[1]; Enterococcus faecium 12, VanA",1 mg/L
same,IC90,"[1]; Enterococcus faecium 13, VanB",0.5 mg/L
same,MIC,"[1]; Enterococcus faecium 13, VanB",1 mg/L
same,IC90,"[1]; Enterococcus faecium 14, HLAR",0.5 mg/L
same,MIC,"[1]; Enterococcus faecium 14, HLAR",1 mg/L
same,IC90,"[1]; Enterococcus faecium 15, HLAR",0.5 mg/L
same,MIC,"[1]; Enterococcus faecium 15, HLAR",1 mg/L
same,IC90,[1]; [5],0.6 mg/L
same,MIC,[1]; [5],1 mg/L
same,IC90,"[1]; Enterococcus faecium 17, VanB",0.5 mg/L
same,MIC,"[1]; Enterococcus faecium 17, VanB",1 mg/L
same,IC90,"[1]; Enterococcus faecium 18, VanB",0.6 mg/L
same,MIC,"[1]; Enterococcus faecium 18, VanB",1 mg/L
same,IC90,"[1]; Enterococcus faecium 19, VanB",0.6 mg/L
same,MIC,"[1]; Enterococcus faecium 19, VanB",1 mg/L
same,MIC,"[1]; Enterococcus faecium multiresistant isolate, Example 4",0.5 mg/L
same,IC90 (mean),Streptococci,0.5 mg/L
same,MIC (mean),Streptococci,1 mg/L
same,MIC range,Streptococci,0.5 to 2 mg/L
same,Cfu/ml blood (median),[2]; [6],1.55 × 10^4 Cfu/ml blood
same,Log (cfu/ml blood) (median),[2]; [6],4.19 Log (cfu/ml blood)
same,decrease of number of bacteria per ml of blood,[2]; p<0.05,approx. 2 log
same,MIC,[3],3 mg/L
same,CC50,uninfected MT4 cells,> 3 µM
same,MIC,[4],1.0 mg/L

# Source: patent US20100113430A1, “THIOXANTHENE DERIVATES USEFUL TO TREAT INFECTIOUS DISEASES” (BKG PHARMA APS, priority 2007, published 2010)
